Where “and” joins values, the source holds several entries; their conditions need not be identical. Identical values can stand only once. Like-named read-outs stand apart in the source and are kept apart here.
Legend:
[1] = Example 13: calculation of predicted human dose from mouse and human PK; settings: for AUC: mouse, plasma
Procedure: Using the PK data above in mice and humans, a human efficacious dose was estimated by identifying a dose in humans that would result in plasma exposures similar to the efficacious dose in the oncology models in mice. The 100 mg/kg/day dose studied for PK in mice and the 180 mg dose studied for PK in humans were the relevant doses used in this estimation.
This predicted human efficacious dose for tozadenant for treating cancer based on the measured PK data can be contrasted to the predicted dose that would be calculated by the less informed but standard approach of using body surface area comparisons between mice and humans, whereby the equivalent dose in humans would be calculated by dividing the dose in mice by 12.3 (see, e.g., Nair A B, Jacob S. A simple practice guide for dose conversion between animals and human. J Basic Clin Pharma 2016;7:27-31). This approach would result in a predicted efficacious dose of 0.24 mg/kg in humans, which is equivalent to approximately 17 mg in a typical 70 kg human. Thus, this prediction using the standard method results in a targeted human dose more than an order of magnitude higher than the one informed by PK.

[2] = tested on: AT-3ova CD73+ tumour (mouse breast carcinoma cell line AT-3); experiment: Example 3: anti-tumor responses of SYN-115 QD or BID in the AT-3ova CD73+ tumour cell mouse model (tumor area); type: in vivo, C57/BL6 mice; set-up: key to Raw Tumor Measurements: tumor area, width × length in mm^2
Procedure: The C57BL/6 mouse breast carcinoma cell line AT-3 was obtained from Dr. Trina Stewart (Griffith University, Nathan, QLD, Australia. Tumor cell lines were transduced to express chicken ovalbumin peptide and CD73 as previously described (1, 2, 3). Tumor cells are periodically verified to be Mycoplasma negative by the Victorian Infectious Diseases References Lab (Melbourne, VIC, Australia) by PCR analysis. Tumor cells were grown in DMEM supplemented with 10% FCS, GlutaMAX, and penicillin/streptomycin. 5×10^5 cells were resuspended in PBS and injected s.c. into C57/BL6 mice in a 100 μL volume. At day 14 tumors were measured and mice were randomized into distinct treatment groups to ensure that each group had tumors of similar size at the onset of treatment. Mice were treated i.p. at days 14, 18, 22, and 26 with either isotype control (2A3; 200 μg/mouse) or anti-PD-1 mAb (RMP1-14, 200 μg/mouse) and where indicated SYN-115 (Batch 71236AA002) at the indicated dose or vehicle control once or twice-daily via oral gavage on days 14 to 29. To calculate a dose of SYN-115 mouse weight was estimated to be 20 g per mouse. Therefore, 100 mg/kg=2 mg per mouse in […] which is equivalent to 10 mg/ml. To make up 40 mL, 400 milligrams of SYN-115 was weighed and added into a Falcon tube, then 1 mL of Tween 80 was added and mixed into a paste and then 39 mL of 1% Methyl Cellulose was added. The solution was vortexed and then left on a rotating mixer for at least 2 hours and maintained at 4° C. Tumor measurements were taken 2-3 times per week. Tumor sizes were determined by width * length and mice were culled when tumors reached the ethical limit of 150 mm^2.

[3] = tested on: B16F10 Cherry melanoma metastases; experiment: Example 10: number of lung tumor metastases in the B16F10 tumor mouse model; type: in vivo, C57/BL6 mice; settings: 100 mg/kg once-daily oral gavage days 0 to 13, counted day 14, Batch 71236AA006
Procedure: The C57/BL6 mouse melanoma cell line B16F10 Cherry was cultured in DMEM supplemented with 10% FCS, GlutaMAX, and penicillin/streptomycin. Tumor cells are periodically verified to be Mycoplasma negative by the Victorian Infectious Diseases References Lab (Melbourne, VIC, Australia) by PCR analysis. 2×10^5 cells were resuspended in PBS and injected i.v. into C57/BL6 mice in a 200 μL volume. At day 14 lungs were excised and the number of metastases counted under the dissecting microscope. Mice were dosed with either SYN-115 (Batch 71236AA006) at 100 mg/kg or vehicle control once-daily via oral gavage on days 0 to 13. To calculate a dose of SYN-115 mouse weight was estimated to be 20 g per mouse. Therefore, 100 mg/kg=2 mg per mouse in 200 μL, which is equivalent to 10 mg/ml. To make up 40 mL, 400 milligrams of SYN-115 was weighed and added into a Falcon tube, then 1 mL of Tween 80 was added and mixed into a paste and then 39 mL of 1% Methyl Cellulose was added. Solution was vortexed and then left on a rotating mixer for at least 2 hours and maintained at 4° C.

COc1ccc(N2CCOCC2)c2sc(NC(=O)N3CCC(C)(O)CC3)nc12 [SYN-115, 4-hydroxy-4-methyl-piperidine-1-carboxylic acid (4-methoxy-7-morpholin-4-yl-benzothiazol-2-yl)-amide]
AUC ([1]; oral, mice, 3 mg/kg efficacious dose, read-out: Point estimate AUC (linear extrapolation)): ~106 ng·h/mL
AUC ([1]; 2 mg/kg dose in mice, read-out: Target AUC in humans): 71 ng·h/mL
Predicted human dose achieving target AUC ([1]; target AUC of 71 hr*ng/mL (2 mg/kg mouse dose)): approximately 0.6 mg
Predicted human dose achieving target AUC ([1]; target AUC of 106 hr*ng/mL (3 mg/kg mouse dose)): approximately 0.9 mg
Tumor size (width * length) ([2]; 2A3 (200 ug/mouse)+SYN-115 (100 mg/kg) QD, Day 0): 19.38 mm^2 and 14.96 mm^2 and 20 mm^2 and 24.38 mm^2 and 13.26 mm^2 and 18.9 mm^2
Tumor size (width * length) ([2]; 2A3 (200 ug/mouse)+SYN-115 (100 mg/kg) QD, Day 31): 73.1 mm^2
Tumor size (width * length) ([2]; 2A3 (200 ug/mouse)+SYN-115 (100 mg/kg) QD, Day 34): 74.82 mm^2
Tumor size (width * length) ([2]; 2A3 (200 ug/mouse)+SYN-115 (100 mg/kg) QD, Day 39): 86.45 mm^2
Tumor size (width * length) ([2]; 2A3 (200 ug/mouse)+SYN-115 (100 mg/kg) QD, Day 42): 129.87 mm^2
Raw Tumor Measurements ([2]; Anti-PD-1 (200 ug)+SYN-115 (30 mg/kg) BID, Day 0): 12.6 and 15.54 and 22 and 16.38 and 22.68 and 18.36
Raw Tumor Measurements ([2]; Anti-PD-1 (200 ug)+SYN-115 (30 mg/kg) BID, Day 17): 44.08 and 44.22 and 73.92 and 38.86 and 63.24 and 66.64
Raw Tumor Measurements ([2]; Anti-PD-1 (200 ug)+SYN-115 (30 mg/kg) BID, Day 31): 111.28 and 64.74
Raw Tumor Measurements ([2]; Anti-PD-1 (200 ug)+SYN-115 (30 mg/kg) BID, Day 34): 73.1
Raw Tumor Measurements ([2]; Anti-PD-1 (200 ug)+SYN-115 (30 mg/kg) BID, Day 39): 69.6
Raw Tumor Measurements ([2]; Anti-PD-1 (200 ug)+SYN-115 (30 mg/kg) BID, Day 42): 99.51
Raw Tumor Measurements ([2]; Anti-PD-1 (200 ug)+SYN-115 (30 mg/kg) BID, Day 44): 114.33
Tumor size (width * length) ([2]; Anti-PD-1 (200 ug)+SYN-115 (30 mg/kg) QD, Day 28): 58.5 mm^2 and 63.99 mm^2 and 113.1 mm^2
Tumor size (width * length) ([2]; Anti-PD-1 (200 ug)+SYN-115 (30 mg/kg) QD, Day 31): 57.76 mm^2 and 74.82 mm^2
Tumor size (width * length) ([2]; Anti-PD-1 (200 ug)+SYN-115 (30 mg/kg) QD, Day 34): 72.8 mm^2 and 93.06 mm^2
Tumor size (width * length) ([2]; Anti-PD-1 (200 ug)+SYN-115 (30 mg/kg) QD, Day 39): 83.42 mm^2 and 127 mm^2
Tumor size (width * length) ([2]; Anti-PD-1 (200 ug)+SYN-115 (30 mg/kg) QD, Day 42): 127.53 mm^2
Raw Tumor Measurements ([2]; Anti-PD-1 (200 ug)+SYN-115 (100 mg/kg) BID, Day 0): 16.28 and 15.96 and 20.46 and 16.8 and 24.12 and 12.24
Raw Tumor Measurements ([2]; Anti-PD-1 (200 ug)+SYN-115 (100 mg/kg) BID, Day 22): 49.92 and 83.7 and 67.45 and 51.48 and 75.64 and 82.39
Raw Tumor Measurements ([2]; Anti-PD-1 (200 ug)+SYN-115 (100 mg/kg) BID, Day 28): 66.96 and 98.79 and 88.4 and 132.3 and 118.34
Raw Tumor Measurements ([2]; Anti-PD-1 (200 ug)+SYN-115 (100 mg/kg) BID, Day 31): 79.38 and 102.08 and 109.44
Raw Tumor Measurements ([2]; Anti-PD-1 (200 ug)+SYN-115 (100 mg/kg) BID, Day 34): 99.36
Raw Tumor Measurements ([2]; Anti-PD-1 (200 ug)+SYN-115 (100 mg/kg) BID, Day 39): 103.55
Raw Tumor Measurements ([2]; Anti-PD-1 (200 ug)+SYN-115 (100 mg/kg) QD, Day 0): 14.82 and 14.76 and 15.17 and 15.12 and 23.78
Raw Tumor Measurements ([2]; Anti-PD-1 (200 ug)+SYN-115 (100 mg/kg) QD, Day 9): 29.07 and 25 and 29.68 and 26 and 34.78 and 29.25
Raw Tumor Measurements ([2]; Anti-PD-1 (200 ug)+SYN-115 (100 mg/kg) QD, Day 13): 32.45 and 39.33 and 38.19 and 25.48 and 40.7 and 33.5
Raw Tumor Measurements ([2]; Anti-PD-1 (200 ug)+SYN-115 (100 mg/kg) QD, Day 15): 39.33 and 42 and 44.2 and 32.86 and 50.74 and 25.85
Raw Tumor Measurements ([2]; Anti-PD-1 (200 ug)+SYN-115 (100 mg/kg) QD, Day 17): 39.53 and 44.4 and 48 and 31.35 and 52.92 and 44.73
Raw Tumor Measurements ([2]; Anti-PD-1 (200 ug)+SYN-115 (100 mg/kg) QD, Day 20): 48.28 and 61.56 and 66.6 and 48.99 and 61.2 and 51.2
Raw Tumor Measurements ([2]; Anti-PD-1 (200 ug)+SYN-115 (100 mg/kg) QD, Day 24): 51.83 and 72.98 and 86.92 and 53.96 and 85.05 and 46.8
Raw Tumor Measurements ([2]; Anti-PD-1 (200 ug)+SYN-115 (100 mg/kg) QD, Day 28): 55.2 and 90.09 and 97.9 and 77.44 and 95.04 and 77.19
Raw Tumor Measurements ([2]; Anti-PD-1 (200 ug)+SYN-115 (100 mg/kg) QD, Day 31): 74.82 and 128.76 and 81.7 and 101.37 and 79.9
Raw Tumor Measurements ([2]; Anti-PD-1 (200 ug)+SYN-115 (100 mg/kg) QD, Day 34): 79.05 and 95.06 and 81.32
Raw Tumor Measurements ([2]; Anti-PD-1 (200 ug)+SYN-115 (100 mg/kg) QD, Day 39): 81.9 and 104.86 and 82.95
Raw Tumor Measurements ([2]; Anti-PD-1 (200 ug)+SYN-115 (100 mg/kg) QD, Day 42): 127.33 and 132.24
Number of Tumor Metastases (lung), individual mice ([3]; AC#009 Males): 0 (2×) and 9 and 5 and 16 and 13 and 1
Number of Tumor Metastases (lung), individual mice ([3]; AC#010 Females): 166 and 38 and 141 and 32 and 137 and 264 and 23 and 226
